Data on 21 compounds can be found in patent publication US7728155B2, “Dihydrobenzofuranyl alkanamines and methods for using same as cns agents” (Wyeth LLC, priority 2003, dated 2010).

Data set [1] addresses T1, human 5-hydroxytryptamine-2C (h5-HT2C) receptor (Homo sapiens, UniProt P28335).
T1 construct: expressed in transfected cells; host or cells: CHO (Chinese Hamster Ovary) cells; membranes
T1 sequence (P28335 33-458): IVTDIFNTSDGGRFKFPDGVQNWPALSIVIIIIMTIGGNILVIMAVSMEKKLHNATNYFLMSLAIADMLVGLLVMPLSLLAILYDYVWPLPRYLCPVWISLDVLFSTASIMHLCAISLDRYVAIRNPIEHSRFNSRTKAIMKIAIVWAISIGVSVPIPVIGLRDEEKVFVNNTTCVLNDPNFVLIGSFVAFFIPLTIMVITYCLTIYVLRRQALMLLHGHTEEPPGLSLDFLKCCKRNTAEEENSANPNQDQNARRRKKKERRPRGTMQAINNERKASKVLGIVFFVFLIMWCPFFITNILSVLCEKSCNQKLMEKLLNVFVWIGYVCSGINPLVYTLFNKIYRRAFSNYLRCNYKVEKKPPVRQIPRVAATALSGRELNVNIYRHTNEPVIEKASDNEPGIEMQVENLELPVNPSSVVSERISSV
The data set is described as follows: [125I]DOI binding affinity at h5-HT2C receptor, CHO cell membranes. The note with it: [125I]DOI displacement, CHO membranes expressing h5-HT2C; read-out: 5-HT2C Affinity Ki.

For another data set, the target named is T2, human 5-HT2C receptor (Homo sapiens, UniProt P28335).
T2 sequence (P28335 33-458): T1 sequence (P28335 33-458)
The experiment in a line: 5-HT2C receptor-stimulated calcium mobilization (FLIPR) in CHO cells. Format: cell-based. The settings on record: for EC50: calcium mobilization, CHO cells expressing human 5-HT2C, read-out: 5-HT2C Function EC50.

Where a name gives a salt, the structure may show the parent alone. Bounds are passed on as bounds.

For the compound `NCC1Cc2ccc3c(c2O1)CCC3` (racemic) (as salt: hydrochloride) [Example 1, (±)-1-(3,6,7,8-tetrahydro-2H-indeno[4,5-b]furan-2-yl)methanamine], the melting point was > 230 °C (dec.).
On the same count and under the same terms, the figure for `NCC1Cc2ccc3c(c2O1)CCCC3` (racemic) (as salt: hydrochloride) [Example 4, (±)-1-(2,3,6,7,8,9-hexahydronaphtho[1,2-b]furan-2-yl)methanamine] is > 220 °C (dec.); for `Cc1cc2c(c3c1CCC3)OC(CN)C2` (racemic) (as salt: hydrochloride) [Example 7, (±)-1-(5-methyl-3,6,7,8-tetrahydro-2H-indeno[4,5-b]furan-2-yl)methanamine] it is > 200 °C (dec.).
Same read-out and setting: the figure for `NCC1Cc2ccc3ccccc3c2O1` (racemic) (as salt: hydrochloride) [Example 10, (±)-1-(2,3-dihydronaphtho[1,2-b]furan-2-yl)methanamine] is > 250 °C (dec.); for `NCC1Cc2cc3c(cc2O1)CCCC3` (racemic) (as salt: hydrochloride) [Example 13, (±)-1-(2,3,5,6,7,8-hexahydronaphtho[2,3-b]furan-2-yl)methanamine] it is greater than 225 °C.
The same measure, in the same setting: the figure for `NCC1Cc2c(ccc3c2CCCC3)O1` (racemic) (as salt: hydrochloride) [Example 14, (±)-1-(1,2,6,7,8,9-hexahydronaphtho[2,1-b]furan-2-yl)methanamine] is greater than 225 °C; for `COc1cc2c(c3c1C1CCC3CC1)OC(CN)C2` (racemic) (as salt: hydrochloride) [Example 19, (±)-1-(5-methoxy-2,3,6,7,8,9-hexahydro-6,9-ethanonaphtho[1,2-b]furan-2-yl)methanamine] it is greater than 210 °C; for `NCC1Cc2cc(Cl)c3ccccc3c2O1` (racemic) (as salt: hydrochloride) [Example 23, (±)-1-(5-chloro-2,3-dihydronaphtho[1,2-b]furan-2-yl)methanamine] it is 269 to 271 °C.
`CNCC1Cc2cc(Cl)c3ccccc3c2O1` (racemic) (as salt: hydrochloride) [Example 24, (±)-1-(5-chloro-2,3-dihydronaphtho[1,2-b]furan-2-yl)-N-methylmethanamine] gave a melting point of 224 to 226 °C.
Same read-out and setting: in the case of `NCC1Cc2c(Cl)cc3c(c2O1)CCC3` (racemic) (as salt: hydrochloride) [Example 25, (±)-1-(4-chloro-3,6,7,8-tetrahydro-2H-indeno[4,5-b]furan-2-yl)methanamine] it was 251 to 254 °C; in that of `NCC1Cc2cc(Cl)c3c(c2O1)CCC3` (racemic) (as salt: hydrochloride) [Example 29, (±)-1-(5-chloro-3,6,7,8-tetrahydro-2H-indeno[4,5-b]furan-2-yl)methanamine], 270 °C (dec.).
The compound `CNCC1Cc2c(Cl)cc3c(c2O1)CCC3` (racemic) [Example 28, (±)-1-(4-chloro-3,6,7,8-tetrahydro-2H-indeno[4,5-b]furan-2-yl)-N-methylmethanamine] displayed a melting point of 58 to 60 °C. Further, the Ki in data set [1] was determined as 11 nM.
Take `C[C@@H](N)[C@H]1Cc2ccc3c(c2O1)CCC3` (relative stereo) (as salt: hydrochloride) [Example 22, (2R*)-1-[(2R*)-3,6,7,8-tetrahydro-2H-indeno[4,5-b]furan-2-yl]ethylamine]: the melting point was greater than 250 °C.
`COc1cc2c(c3c1C1CCC3C1)OC(CN)C2` (single isomer, unassigned) (as salt: hydrochloride) [Example 16, (9-methoxy-4-oxatetracyclo[9.2.1.0^2,10.0^3,7]tetradeca-2,7,9-trien-5-yl)methylamine]: the melting point is > 180 °C (dec.).
For the compound `COc1cc2c(c3c1C1CCC3C1)OC(CN)C2` (single isomer, unassigned) (as salt: hydrochloride) [Example 17, (9-methoxy-4-oxatetracyclo[9.2.1.0^2,10.0^3,7]tetradeca-2,7,9-trien-5-yl)methylamine], the melting point is > 150 °C (dec.).
Same read-out and setting: in the case of `Cc1cc2c(c3c1CCC3)OC(CN)C2` (single isomer, unassigned; (+)) (as salt: hydrochloride) [Example 8, (+)-1-(5-methyl-3,6,7,8-tetrahydro-2H-indeno[4,5-b]furan-2-yl)methanamine] it was greater than 220 °C; in that of `COc1cc2c(c3c1C1CCC3CC1)OC(CN)C2` (single isomer, unassigned; (+)) (as salt: hydrochloride) [Example 20, (+)-1-(5-methoxy-2,3,6,7,8,9-hexahydro-6,9-ethanonaphtho[1,2-b]furan-2-yl)methanamine], greater than 220 °C.
On the same count and under the same terms, the figure for `NCC1Cc2cc(Cl)c3c(c2O1)CCC3` (single isomer, unassigned; (-)) (as salt: hydrobromid) [Example 30, (−)-1-(5-chloro-3,6,7,8-tetrahydro-2H-indeno[4,5-b]furan-2-yl)methanamine] is greater than 330 °C.
Compound `NCC1Cc2c(Cl)cc3c(c2O1)CCC3` (single isomer, unassigned; (-)) (as salt: hydrochloride) [Example 26, (−)-1-(4-chloro-3,6,7,8-tetrahydro-2H-indeno[4,5-b]furan-2-yl)methanamine] had a melting point of 265 to 268 °C.
Consider `NCC1Cc2cc(Cl)c3c(c2O1)CCC3` (single isomer, unassigned; (-)) [Example 30, (−)-1-(5-chloro-3,6,7,8-tetrahydro-2H-indeno[4,5-b]furan-2-yl)methanamine], for which the EC50 on human 5-HT2C receptor turned out to be 234 nM. Also, the “5-HT2C Function Emax (%)” value at human 5-HT2C receptor (percentage of the response to a maximally effective concentration of 5-HT) is reported as 80%. Also, the Ki in data set [1] was determined as 6 nM.
On to `COc1cc2c(c3c1C1CCC3C1)OC(CN)C2` (centres unmarked) [Example 15, (9-methoxy-4-oxatetracyclo[9.2.1.0^2,10.0^3,7]tetradeca-2,7,9-trien-5-yl)methylamine], for which the Emax on human 5-HT2C receptor (CHO, percentage of the response to a maximally effective concentration of 5-HT, read-out: 5-HT2C Function Emax (%)) came to 100%. The EC50 at human 5-HT2C receptor stood at 17 nM. For the same compound, in data set [1], the Ki worked out at 9 nM.

As a reminder, the melting point is the temperature, or range, at which the solid turns liquid. In general, Ki refers to a measure of affinity in units of concentration, obtained from inhibition or displacement. By EC50 is commonly meant the concentration giving half of the maximal effect. The term Emax denotes the maximal effect, on the per cent scale that the assay sets.
